# Test results: patent US20230338554A1, “GALACTOSYLATED DENDRIMERS FOR TARGETED INTRACELLULAR DELIVERY TO HEPATOCYTES” (The Johns Hopkins University, priority 2020, published 2023)
# Tests used:
# ASGPR = molecular target: T1, ASGPR (Homo sapiens, UniProt P07306); details: cited from earlier work
# T1 sequence (P07306 1-291): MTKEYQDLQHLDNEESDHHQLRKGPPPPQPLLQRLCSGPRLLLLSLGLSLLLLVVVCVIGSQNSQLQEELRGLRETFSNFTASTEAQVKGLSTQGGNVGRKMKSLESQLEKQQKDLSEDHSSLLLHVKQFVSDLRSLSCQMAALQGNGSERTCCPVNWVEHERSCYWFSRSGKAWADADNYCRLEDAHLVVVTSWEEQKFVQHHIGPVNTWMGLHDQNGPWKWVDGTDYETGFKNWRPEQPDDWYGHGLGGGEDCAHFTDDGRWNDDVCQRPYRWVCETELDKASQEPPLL
# [1] = system: severe acetaminophen poisoning; assay: Gal-D4-NAC treatment in mouse model of severe acetaminophen poisoning; type: in vivo, C57BL6 mice
# Method: A model of severe acetaminophen poisoning was established through the administration of 700 mg/kg APAP i.p. to C57BL6 mice (FIG. 12A). There was a high mortality rate, with >90% of mice given APAP overdose dying with 72 hours regardless of treatment with free NAC (FIG. 12B). FIG. 12B represents the survival of healthy sham (black) and saline (red), free NAC (green), and Gal-D4-NAC (blue) treated animals as determined by mass reduction below 80% of the initial animal mass. This model replicates the effects of APAP overdose that result in fulminant liver failure and are considered untreatable with the current clinical NAC regiment. Additionally, to mimic delayed treatment due to late arrival at the hospital, animals eight hours after APAP overdose were also treated as opposed to the pre- and co-treatments with nanoparticles that are typically reported in this model. Both dendrimer and free drug treated animals received 100 mg/kg of NAC, which is […] of the dose that would be administered over 24 hours by i.v. infusion in the clinic.
# Next liver necrosis and function were assessed through analysis of images from liver sections isolated at time of death and stained for hematoxylin and eosin. […] After receiving an overdose of APAP, liver structure is essentially destroyed. […]
structure (smiles),measurement,setting,value
"CC(=O)N[C@H]1C(O)O[C@H](CO)[C@H](O)[C@@H]1O (stereo partly drawn) [N-acetylgalactosamine (GalNAc), N-acetylgalactosamine]",monovalent binding affinity to ASGPR,ASGPR,micromolar scale
"CC(=O)N[C@@H](CS)C(=O)O [free NAC, N-acetyl cysteine]",mice dying,"[1]; 700 mg/kg APAP i.p., 72 hours",> 90%
same,liver architecture / liver health,[1]; single i.v. dose 100 mg/kg on a NAC basis,unable to have any effect on liver health
